In PubChem BioAssay (NCI) one finds GI50 and TGI data, which are given here for eleven compounds.

Common to all, as to assay: DTP human tumour cell line panel, 48 h
In test [1] the test system is CAKI-1 renal.
Test [2] has as its system HCC-2998 colon.
Test [3] relates to MDA-MB-231 breast.
Test [4] has as its system NCI/ADR-RES ovarian.
Test [5] concerns PC-3 prostate.
Test [6] concerns SK-MEL-2 melanoma.
The test system of test [7] is SR leukemia.
The test system of test [8] is T-47D breast.
Test [9] relates to DMS 273 small cell lung.
The test system of test [10] is HOP-18 NSCLC.
Test [11] deals with KM20L2 colon.
Test [12] concerns LXFL 529 NSCLC.

Structures are written as SMILES.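 How tested: cells in 96-well plates exposed to compound for 48 hours at five concentrations. Abbreviation: GI50, concentration required for 50% inhibition of growth. At the TGI there is no net growth.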

Take `C=C(NC(=O)C(=C)NC(=O)c1csc(C2=NC3c4csc(n4)C4NC(=O)c5csc(n5)C(C(C)(O)C(C)O)NC(=O)C5CSC(=N5)C(=CC)NC(=O)C(C(C)O)NC(=O)c5csc(n5)C3(CC2)NC(=O)C(C)NC(=O)C(=C)NC(=O)C(C)NC(=O)C(C(C)CC)NC2C=Cc3c(C(C)O)cc(nc3C2O)C(=O)OC4C)n1)C(N)=O` (stereo not given): the GI50 was 14.6 µM in test [1]; 28.8 µM in test [2]; 6.46 µM in [3]; greater than 100 µM in test [4]; 77.5 µM in test [5]; 19 µM in test [6]. The GI50 in [8] was 4.41 µM. Besides, the concentration for total growth inhibition (TGI) in test [1], in [2], in test [3], in test [4], in test [5] and in [6] was greater than 100 µM throughout. The concentration for total growth inhibition (TGI) stood at 69.1 µM in test [7] and 80.7 µM in test [8].
As to `COc1cc2ncn(-c3cc(O[C@@H](C)c4ccccc4Cl)c(C(N)=O)s3)c2cc1OC`, the GI50 in test [1] was 6.8 µM; in test [2], 2.55 µM; in test [3] it was 1.19 µM; in [4], 0.429 µM; in [5], 2.55 µM; in [6], 1.58 µM. Further, the GI50 was 0.701 µM in test [7] and 1.8 µM in test [8]. For the same compound, the TGI in test [1], in test [2], in test [3], in [4], in test [5] and in [6] was greater than 25 µM each time. Further, the values for the TGI in test [7] and in [8] were greater than 18.8 µM and 7.09 µM, respectively.
For the compound `CNC(=O)c1ccc(N2C(=S)N(c3ccc(C#N)c(C(F)(F)F)c3)C(=O)C2(C)C)cc1F`, the GI50 in [1] is 31 µM; in test [2], greater than 40.7 µM; in [3] it was greater than 38.6 µM; in [4], 33.3 µM; in [5] it was 30.3 µM; in test [6], 36.2 µM. The GI50 is 17.9 µM in test [7] and 27.9 µM in [8]. The TGI was greater than 52 µM in test [1]; greater than 65.8 µM in [2]; greater than 60.6 µM in test [3]; greater than 100 µM in [4]; greater than 100 µM in [5]; greater than 71.9 µM in test [6]. The values for the TGI in test [7] and in test [8] were greater than 100 µM and 97 µM, respectively.
On to `Cc1nc2sc(C(=O)Nc3cccc4ccccc34)c(N)c2cc1C(O)c1ccccc1` (stereo not given), for which the GI50 is 0.0583 µM in test [1]; 0.193 µM in [2]; 0.15 µM in test [3]; 0.0373 µM in test [4]; 0.118 µM in test [5]; 0.29 µM in [6]. The concentration for 50% growth inhibition (GI50) is 0.04 µM in test [7] and 0.0527 µM in [8]. The TGI in test [1] was 12 µM; in [2], 2.89 µM; in [3] it was 5.36 µM; in [4] it was 0.968 µM; in test [5], greater than 38 µM; in [6], 16.9 µM. For the same compound, the TGI in test [7] is greater than 43 µM; in test [8], 88.6 µM.
For the compound `Cc1cc(=O)oc2c(C)c(O)ccc12`, the TGI in test [1], in test [2], in test [3], in test [4], in test [5] and in test [6] was greater than 100 µM in each case. For the same compound, the TGI in [7] and in test [8] was greater than 100 µM in each case.
Turning to `C[C@]12CCC(=O)C(O)=C1CC[C@@H]1C2CC[C@]2(C)NC(=O)CCC12` (stereo not given in full), the TGI in [1], in test [9], in test [10], in test [11], in test [12] and in test [6] was greater than 100 µM in each case.
In the case of `COc1ccc(/C(=N\NC(=O)C(=O)NN)C(c2ccc(OC)cc2)C2(O)C(=O)Nc3ccccc32)cc1` (stereo not given), the TGI in test [1], in test [9], in [11], in test [12], in test [6] and in [7] was greater than 100 µM each time.
In the case of `O=c1ccs[nH]1`, the total growth inhibition concentration (TGI) in test [1] amounted to 22.2 µM; in [2], 8.02 µM; in test [3] it was 28.6 µM; in test [4] it was 50.5 µM; in test [5], 31.4 µM; in [6], 61.3 µM. In addition, the TGI in test [7] was determined as 16.4 µM; in [8], 55.5 µM.
For `COC(=O)c1cc2c3ccccc3n3c(=O)c4cc5ccccc5nc4c(n1)c23`, the GI50 in test [1], in [2], in [3], in test [4], in test [5] and in test [6] was greater than 100 µM in each case. Also, the GI50 in [7] and in test [8] was greater than 100 µM in each case. Further, the total growth inhibition concentration (TGI) in [1], in test [2], in test [3], in [4], in test [5] and in test [6] was greater than 100 µM each time. The TGI in test [7] and in test [8] was greater than 100 µM each time.
For the compound `CC(C)C[C@H](NC(=O)Cn1ccc(NCc2ccccc2)cc1=O)B(O)O`, the GI50 is 0.499 µM in [1]; 2.21 µM in test [2]; 3.18 µM in [3]; 17.8 µM in [4]; 5.86 µM in [5]; 1.85 µM in [6]. The GI50 is 0.281 µM in test [7] and 0.785 µM in test [8]. For the same compound, the TGI in [1] is 12.8 µM; in test [2], 5.73 µM; in test [3], 19.8 µM; in test [4], greater than 100 µM; in test [5] it was 98.9 µM; in [6] it was 14.8 µM. In addition, the total growth inhibition concentration (TGI) is 14.5 µM in [7] and 12.4 µM in test [8].
In the case of `COc1ccc2c3c([nH]c2c1[N+](=O)[O-])C(C)N(Cc1ccc([N+](=O)[O-])cc1)CC3` (stereo not given), the TGI in [1] was found to be 32.5 µM; in test [9], 27.8 µM; in test [2] it was 37.3 µM; in [11], 45 µM; in test [12] it was 59.8 µM; in [6] it was 41 µM. In addition, in test [7], the TGI is greater than 100 µM.
